Measured values as given in patent US12351574B2, “Selective ligands for modulation of GIRK channels” (Northeastern University, priority 2018, dated 2025).

Test system: fear memories (freezing behavior)
Assay: cued fear conditioning test
Type: in vivo, rat
Settings: for effect on fear acquisition (in words): FIG. 62A
Experimental: Cued fear conditioning test: On day 1, animals were habituated to the sound attenuating fear conditioning chamber (Kinder Scientific, Poway, CA) for 10 min. Between each animal, the chamber was cleaned with 70% ethanol. On day 2, acquisition of fear was achieved by placing rats back into the chamber for a 120 s acclimation period and then five pairings (120 s inter-trial interval) of the conditioned stimulus (CS; 20 s, 80 dB) followed immediately by the unconditioned shock stimulus (US; 500 ms, 0.8 mA foot shock). On day 3, CS consolidation was assessed by placing the rats back into the chamber with a 120 s acclimation period followed by five presentations of the CS only (20 s, 80 dB) with 120 s inter-trial-intervals. On day 4, extinction was assessed by presenting a 120 s acclimation period followed by 20 trials of the CS (20 s, 80 dB) with 120 s inter-trial-intervals. The same experimenter (SDF) handled the rats during all sessions and was blinded to the treatment. All trials were digitally video-recorded. For this behavioral test and all others, blind scoring was aided by modification of video file names by AIM. Freezing behavior (no visible signs of movement) was scored by SDF during the sound presentation and converted to percentage of total time. The acquisition, expression, extinction and recall of fear memories were assessed in a […] learning paradigm (modified from Johnson, P. L., et al., Pharmacological depletion of serotonin in the basolateral amygdala complex reduces anxiety and disrupts fear conditioning, Pharmacol Biochem Behav, 2015. 138: p. 174-9). Rats were habituated to the sound attenuating fear conditioning chamber on day 1 (Kinder Scientific, Poway, CA) for 10 min. For all experiments, the chamber was cleaned between animals. On day 2 acquisition of fear occurred where the rats were placed back into the chamber and after a 120 s acclimation period received 5 pairings (120 s inter-trial interval) of the conditioned stimulus (CS; 20 s, 80 dB) followed immediately by the unconditioned shock stimulus (US; 500 ms, 0.8 mA foot shock). On day 3 conditioned stimulus (CS) consolidation was assessed by placing the rats back into the chamber with a 120 s acclimation period followed by 5 presentations of the CS only (20 s, 80 dB) separated by 120 s. On day 4 extinction was assessed which consisted of the 120 s acclimation period followed by 20 trials of the CS (20 s, 80 dB) separated by 120 s intervals. On day 5, all animals were assessed for the recall. Animals were placed in the chamber and were presented with 5 tones. The same experimenter handled the rats during all sessions and was blinded to the phenotype. All trials were digitally video-recorded. Freezing behavior (no visible signs of movement) was scored by a blind scorer during the sound presentation and converted to percentage of total time.

[1] = 10 or 30 mg/kg i.p., FIGS. 27, 28
[2] = 10 or 30 mg/kg i.p., after acquisition and 30 min prior to consolidation, FIGS. 27, 28
[3] = 30 mg/kg, vehicle tone 5 (GAT1521 study), tone 6 (ML297 study)

| Structure (SMILES) | effect on fear acquisition (in words) (10 mg/kg) | effect on fear consolidation (in words) (10 mg/kg, FIG. 62B) | effect on fear acquisition (in words) (30 mg/kg, early pairings) | extinction of fear memories versus vehicle (in words) [1] | effect on consolidation of fear memories (in words) [2] | recall of the freezing behavior (in words) (FIG. 62E) | tone by which freezing was significantly reduced during extinction (GAT1508 group, control group tone 7) | fear extinction of the freezing behavior (in words) (follow-up experiments, FIGS. 62C-62D, 63) | tone by which freezing was significantly reduced during extinction [3] | effect on consolidation of fear memories (in words) (30 mg/kg, FIG. 29) | extinction of fear memories versus controls (in words) (30 mg/kg, FIG. 29) |
| --- | --- | --- | --- | --- | --- | --- | --- | --- | --- | --- | --- |
| Cc1cc(NC(=O)Nc2ccc(Br)s2)n(-c2ccccc2)n1 [GAT1508, 1-(5-bromothiophen-2-yl)-3-(3-methyl-1-phenyl-1H-pyrazol-5-yl)urea] | no significant effects | no significant effects | significant reductions in fear acquisition | extinguished fear memories much faster | no effects | No significant changes | 4 tone | more efficient extinction of the freezing behavior | – | – | – |
| Cc1cc(NC(=O)Nc2ccc(C)s2)n(-c2ccccc2)n1 [GAT1521, 1-(3-methyl-1-phenyl-1H-pyrazol-5-yl)-3-(5-methylthiophen-2-yl)urea] | – | – | – | significantly reduced overall freezing during extinction | affected consolidation of fear memories | – | – | – | 3 tone | – | – |
| Cc1cc(NC(=O)Nc2ccc(F)c(F)c2)n(-c2ccccc2)n1 [ML297, reference compound] | – | – | – | – | – | – | – | – | 6 tone | no effect | no significant differences |
